What all share (assay type): in vivo
One experiment concerns Venturia inaequalis. Kind of experiment: Apple Scab (VENTIN) fungicidal activity on apple seedlings. The note with it: 24 h, 1 Day Protectant, read-out: VENTIN 1 DP disease control. How it is done:
Technical grades of materials were dissolved in acetone, which were then mixed with nine volumes of water (H2O) containing 110 ppm Triton X-100. The fungicide solutions were applied onto wheat seedlings using an automated booth sprayer to run-off. All sprayed plants were allowed to air dry prior to further handling. All fungicides were evaluated using the aforementioned method for their activity vs. all target diseases, unless stated otherwise. Wheat leaf blotch and brown rust activity were also evaluated using track spray applications, in which case the fungicides were formulated as EC formulations, containing 0.1% Trycol 5941 in the spray solutions. Wheat plants (variety Yuma) were grown from seed in a greenhouse in 50% mineral soil/50% soil-less Metro mix until the first leaf was fully emerged, with 7-10 seedlings per pot. These plants were inoculated with an aqueous spore suspension of Septoria tritici either prior to or after fungicide treatments. After inoculation the plants were kept in 100% relative humidity (one day in a dark dew chamber followed by two to three days in a lighted dew chamber at 20° C.) to permit spores to germinate and infect the leaf. The plants were then transferred to a greenhouse set at 20° C. for disease to develop. When disease symptoms were fully expressed on the 1st leaves of untreated plants, infection levels were assessed on a scale of 0 to 100 percent disease severity. Percent disease control was calculated using the ratio of disease severity on treated plants relative to untreated plants. Example D: Evaluation of Fungicidal Activity: Apple Scab (Venturia inaequalis; Bayer code […]) Apple seedlings (variety McIntosh) were grown in soil-less Metro mix, with one plant per pot. Seedlings with two expanding young leaves at the top (older leaves at bottom of the plants were trimmed) were used in the test. Plants were inoculated with a spore suspension of Venturia inaequalis 24 h after fungicide treatment and kept in a 22° C. dew chamber with 100% relative humidity for 48 h, and then moved to a greenhouse set at 20° C. for disease to develop. Fungicide formulation, application and disease assessment on the sprayed leaves followed the procedures as described in the Example A.

A further experiment relates to Alternaria solani. The experiment in a line: Tomato Early Blight (ALTESO) fungicidal activity on tomato plants. The settings on record: 24 h, 1 Day Protectant, read-out: ALTESO 1 DP disease control. How it is done: Technical grades of materials were dissolved in acetone, which were then mixed with nine volumes of water (H2O) containing 110 ppm Triton X-100. The fungicide solutions were applied onto wheat seedlings using an automated booth sprayer to run-off. All sprayed plants were allowed to air dry prior to further handling. All fungicides were evaluated using the aforementioned method for their activity vs. all target diseases, unless stated otherwise. Wheat leaf blotch and brown rust activity were also evaluated using track spray applications, in which case the fungicides were formulated as EC formulations, containing 0.1% Trycol 5941 in the spray solutions. Wheat plants (variety Yuma) were grown from seed in a greenhouse in 50% mineral soil/50% soil-less Metro mix until the first leaf was fully emerged, with 7-10 seedlings per pot. These plants were inoculated with an aqueous spore suspension of Septoria tritici either prior to or after fungicide treatments. After inoculation the plants were kept in 100% relative humidity (one day in a dark dew chamber followed by two to three days in a lighted dew chamber at 20° C.) to permit spores to germinate and infect the leaf. The plants were then transferred to a greenhouse set at 20° C. for disease to develop. When disease symptoms were fully expressed on the 1st leaves of untreated plants, infection levels were assessed on a scale of 0 to 100 percent disease severity. Percent disease control was calculated using the ratio of disease severity on treated plants relative to untreated plants. Example I: Evaluation of Fungicidal Activity: Tomato Early Blight (Alternaria solani; Bayer code […]) Tomato plants (variety Outdoor Girl) were propagated in soil-less Metro mix, with each pot having one plant, and used when 12 to 14 days old. Test plants were inoculated with an aqueous spore suspension of Alternaria solani 24 h after fungicide treatments. After inoculation the plants were kept in 100% relative humidity (one day in a dark dew chamber followed by two to three days in a lighted dew chamber at 20° C.) to permit spores to germinate and infect the leaf. The plants were then transferred to a growth room at 22° C. for disease to develop. Fungicide formulation, application and disease assessment on the sprayed leaves followed the procedures as described in the Example A.

Experiment [1] concerns Magnaporthe grisea; Anamorph: Pyricularia oryzae. Kind of experiment: whole plant or invertebrate. The note with it: 24 h, read-out: PYRIOR 1 DP disease control.

As for `COc1ccnc(C(=O)N[C@@H](C)C(=O)O[C@@H](C)C(c2ccc(Cl)cc2)c2ccc(Cl)cc2)c1OC(C)=O` [Cmpd 174], the values for the pest or weed control at 100 ppm (with Venturia inaequalis; with Alternaria solani; in experiment [1]) were below 80%, below 80% and above 80%, respectively.

On to `COc1ccnc(C(=O)N[C@@H](C)C(=O)O[C@@H](C)C(c2ccccc2)c2ccccc2)c1OC(C)=O` [Cmpd 139, (S)-(S)-1,1-diphenylpropan-2-yl 2-(3-acetoxy-4-methoxypicolinamido)propanoate], for which the figures for the pest or weed control at 100 ppm (with Venturia inaequalis; in the experiment with Alternaria solani; in experiment [1]) were above 80%, below 80% and above 80%, respectively.

In the case of `COc1ccnc(C(=O)N[C@@H](C)C(=O)O[C@@H](C)C(c2ccccc2)c2ccccc2)c1OCOC(C)=O` [Cmpd 141, (S)-(S)-1,1-diphenylpropan-2-yl 2-(3-(acetoxymethoxy)-4-methoxypicolinamido)propanoate], the pest or weed control at 100 ppm in the experiment on Venturia inaequalis was above 80%; in the experiment on Alternaria solani it was below 80%; in experiment [1] it was above 80%.

For `COc1ccnc(C(=O)N[C@@H](C)C(=O)O[C@@H](C)C(c2ccc(F)cc2F)c2ccc(F)cc2F)c1OC(C)=O` [Cmpd 150], the pest or weed control at 100 ppm (in the experiment on Venturia inaequalis; in the experiment on Alternaria solani; in experiment [1]) was above 80% each time.

On to `COc1ccnc(C(=O)N[C@@H](C)C(=O)O[C@@H](C)C(c2ccccc2)c2ccccc2)c1OC(=O)C(C)C` [Cmpd 140], for which the pest or weed control at 100 ppm (in the experiment with Venturia inaequalis; in the experiment on Alternaria solani; in experiment [1]) was above 80% each time.

Regarding `COc1ccnc(C(=O)N[C@@H](C)C(=O)O[C@@H](C)C(c2ccc(F)cc2F)c2ccc(F)cc2F)c1OCOC(C)=O` [Cmpd 148], the figures for the pest or weed control at 100 ppm (in the experiment on Venturia inaequalis; in the experiment with Alternaria solani; in experiment [1]) were above 80%, below 80% and above 80%, respectively.

For `COc1ccnc(C(=O)N[C@@H](C)C(=O)O[C@@H](C)C(c2ccc(F)cc2)c2ccc(F)cc2)c1OC(C)=O` [Cmpd 145], the pest or weed control at 100 ppm (in the experiment with Venturia inaequalis; in the experiment with Alternaria solani; in experiment [1]) was above 80% throughout.

As to `COc1ccnc(C(=O)N[C@@H](C)C(=O)O[C@@H](C)C(c2ccc(Cl)cc2)c2ccc(Cl)cc2)c1OCOC(C)=O` [Cmpd 176], the pest or weed control at 100 ppm in the experiment on Venturia inaequalis is above 80%; in the experiment on Alternaria solani, below 80%; in experiment [1], above 80%.

With `COc1ccnc(C(=O)N[C@@H](C)C(=O)O[C@@H](C)C(c2ccc(F)cc2)c2ccc(F)cc2)c1OCOC(C)=O` [Cmpd 146], the pest or weed control at 100 ppm (with Venturia inaequalis; in the experiment with Alternaria solani; in experiment [1]) was above 80% throughout.

In the case of `COc1ccnc(C(=O)N[C@@H](C)C(=O)O[C@@H](C)C(c2ccccc2)c2ccccc2)c1OCOC(=O)C(C)C` [Cmpd 142, (S)-(S)-1,1-diphenylpropan-2-yl 2-(3-((isobutyryloxy)methoxy)-4-methoxypicolinamido)propanoate], the pest or weed control at 100 ppm (with Venturia inaequalis; with Alternaria solani; in experiment [1]) was above 80% each time.

(Values after US20240423207A1, “PICOLINAMIDE COMPOUNDS WITH FUNGICIDAL ACTIVITY” (CORTEVA AGRISCIENCE LLC, priority 2014, published 2024).)
